How the values were obtained:
Assay in all cases: Carna kinome panel
Type in all cases: biochemical
EEF2K = EEF2K (Homo sapiens (Human), UniProt O00418); conditions: read-out: % Inhibition at 10 μM of the test compound
KIT(V560G) = KIT(V560G) (Homo sapiens (Human), UniProt P10721, V560G); conditions: read-out: % Inhibition at 10 μM of the test compound
HER2 = HER2 (Homo sapiens (Human), UniProt P04626); conditions: read-out: % Inhibition at 10 μM of the test compound
CDK2/CycA2 = CDK2/CycA2 (Homo sapiens (Human), UniProt P24941)
Description: (§1) 2) Off-Chip Mobility Shift Assay (MSA).

CDK2/CycE1 = CDK2/CycE1 (Homo sapiens (Human), UniProt P24941)
Description: as §1

CDK9/CycT1 = CDK9/CycT1 (Homo sapiens (Human), UniProt P50750)
Description: as §1

CDK3/CycE1 = CDK3/CycE1 (Homo sapiens (Human), UniProt Q00526)
Description: as §1

PIK3CA/PIK3R1 = PIK3CA/PIK3R1 (Homo sapiens (Human), UniProt P42336)
Description: as §1

TSSK2 = TSSK2 (Homo sapiens (Human), UniProt Q96PF2); conditions: read-out: % Inhibition at 10 μM of the test compound
DYRK1B = DYRK1B (Homo sapiens (Human), UniProt Q9Y463); conditions: read-out: % Inhibition at 10 μM of the test compound
Description: Briefly, a selection of compounds was screened against a panel of kinases at a single concentration of 10 μM. […] This was completed using one of two assays, depending on the kinase being examined: 1) IMAP Assay. A solution of 4× inhibitor, 4× substrate/ATP/metal solution and 2× kinase solution was prepared with assay buffer (20 mM HEPES, 0.01% Tween-20, 2 mM DTT, pH 7.4) and mixed, then incubated in 384-well black plates for 1 hour at room temperature. The IMAP binding reagent (IMAP Screening Express kit; Molecular Devices) was added to each well and incubated for 30 minutes. […] 2) Off-Chip Mobility Shift Assay (MSA). A solution of 4× inhibitor, 4× substrate/ATP/metal solution and 2× kinase solution was prepared with assay buffer (20 mM HEPES, 0.01% Triton X-100, 2 mM DTT, pH 7.5) and mixed, then incubated in 384-well plates for 1 or 5 hours depending on the kinase, at room temperature. Termination buffer (QuickScout Screening assist MSA; Carna Biosciences) was added to each well. The entire reaction mixture was then applied to a LabChip3000 system (Caliper Life Science), and the product and substrate peptide peaks were separated and quantified. […] The entire reaction mixture was then applied to a LabChip3000 system (Caliper Life Science), and the product and substrate peptide peaks were separated and quantified.

MST2 = MST2 (Homo sapiens (Human), UniProt Q13188); conditions: read-out: % Inhibition at 10 μM of the test compound
PLK1 = PLK1 (Homo sapiens (Human), UniProt P53350); conditions: read-out: % Inhibition at 10 μM of the test compound
SLK = SLK (Homo sapiens (Human), UniProt Q9H2G2); conditions: read-out: % Inhibition at 10 μM of the test compound
CGK2 = CGK2 (Homo sapiens (Human), UniProt Q13237); conditions: read-out: % Inhibition at 10 μM of the test compound
PKCβ1 = PKCβ1 (Homo sapiens (Human), UniProt P05771); conditions: read-out: % Inhibition at 10 μM of the test compound
CDC2/CycB1 = CDC2/CycB1 (Homo sapiens (Human), UniProt P06493); conditions: read-out: % Inhibition at 10 μM of the test compound
PBK = PBK (Homo sapiens (Human), UniProt Q96KB5); conditions: read-out: % Inhibition at 10 μM of the test compound
PKCζ = PKCζ (Homo sapiens (Human), UniProt Q05513); conditions: read-out: % Inhibition at 10 μM of the test compound
CLK1 = CLK1 (Homo sapiens (Human), UniProt P49759); conditions: read-out: % Inhibition at 10 μM of the test compound
MAP2K4_Cascade = MAP2K4_Cascade (Homo sapiens (Human), UniProt P45985); conditions: read-out: % Inhibition at 10 μM of the test compound
FGFR4(V550E) = FGFR4(V550E) (Homo sapiens (Human), UniProt P22455, V550E); conditions: read-out: % Inhibition at 10 μM of the test compound
BRAF(V600E)_Cascade = BRAF(V600E)_Cascade (Homo sapiens (Human), UniProt P15056, V600E); conditions: read-out: % Inhibition at 10 μM of the test compound
FRK = FRK (Homo sapiens (Human), UniProt P42685); conditions: read-out: % Inhibition at 10 μM of the test compound
HGK = HGK (Homo sapiens (Human), UniProt O95819); conditions: read-out: % Inhibition at 10 μM of the test compound
PHKG1 = PHKG1 (Homo sapiens (Human), UniProt Q16816); conditions: read-out: % Inhibition at 10 μM of the test compound
DCAMKL2 = DCAMKL2 (Homo sapiens (Human), UniProt Q8N568); conditions: read-out: % Inhibition at 10 μM of the test compound
ARG = ARG (Homo sapiens (Human), UniProt P42684); conditions: read-out: % Inhibition at 10 μM of the test compound
MLK3_Cascade = MLK3_Cascade (Homo sapiens (Human), UniProt Q16584); conditions: read-out: % Inhibition at 10 μM of the test compound
p70S6Kβ = p70S6Kβ (Homo sapiens (Human), UniProt Q9UBS0); conditions: read-out: % Inhibition at 10 μM of the test compound
CK1γ3 = CK1γ3 (Homo sapiens (Human), UniProt Q9Y6M4); conditions: read-out: % Inhibition at 10 μM of the test compound
PKCθ = PKCθ (Homo sapiens (Human), UniProt Q04759); conditions: read-out: % Inhibition at 10 μM of the test compound
CaMK2γ = CaMK2γ (Homo sapiens (Human), UniProt Q13555); conditions: read-out: % Inhibition at 10 μM of the test compound
JAK2 = JAK2 (Homo sapiens (Human), UniProt O60674); conditions: read-out: % Inhibition at 10 μM of the test compound
ITK = ITK (Homo sapiens (Human), UniProt Q08881); conditions: read-out: % Inhibition at 10 μM of the test compound
CaMK2β = CaMK2β (Homo sapiens (Human), UniProt Q13554); conditions: read-out: % Inhibition at 10 μM of the test compound
MLK1_Cascade = MLK1_Cascade (Homo sapiens (Human), UniProt P80192); conditions: read-out: % Inhibition at 10 μM of the test compound
DAPK1 = DAPK1 (Homo sapiens (Human), UniProt P53355); conditions: read-out: % Inhibition at 10 μM of the test compound
RET(M918T) = RET(M918T) (Homo sapiens (Human), UniProt P07949, M918T); conditions: read-out: % Inhibition at 10 μM of the test compound
DYRK1A = DYRK1A (Homo sapiens (Human), UniProt Q13627); conditions: read-out: % Inhibition at 10 μM of the test compound
[1] = read-out: % Inhibition at 10 μM of the test compound

Sequence of PIK3CA/PIK3R1 (P42336 whole entry, looked up): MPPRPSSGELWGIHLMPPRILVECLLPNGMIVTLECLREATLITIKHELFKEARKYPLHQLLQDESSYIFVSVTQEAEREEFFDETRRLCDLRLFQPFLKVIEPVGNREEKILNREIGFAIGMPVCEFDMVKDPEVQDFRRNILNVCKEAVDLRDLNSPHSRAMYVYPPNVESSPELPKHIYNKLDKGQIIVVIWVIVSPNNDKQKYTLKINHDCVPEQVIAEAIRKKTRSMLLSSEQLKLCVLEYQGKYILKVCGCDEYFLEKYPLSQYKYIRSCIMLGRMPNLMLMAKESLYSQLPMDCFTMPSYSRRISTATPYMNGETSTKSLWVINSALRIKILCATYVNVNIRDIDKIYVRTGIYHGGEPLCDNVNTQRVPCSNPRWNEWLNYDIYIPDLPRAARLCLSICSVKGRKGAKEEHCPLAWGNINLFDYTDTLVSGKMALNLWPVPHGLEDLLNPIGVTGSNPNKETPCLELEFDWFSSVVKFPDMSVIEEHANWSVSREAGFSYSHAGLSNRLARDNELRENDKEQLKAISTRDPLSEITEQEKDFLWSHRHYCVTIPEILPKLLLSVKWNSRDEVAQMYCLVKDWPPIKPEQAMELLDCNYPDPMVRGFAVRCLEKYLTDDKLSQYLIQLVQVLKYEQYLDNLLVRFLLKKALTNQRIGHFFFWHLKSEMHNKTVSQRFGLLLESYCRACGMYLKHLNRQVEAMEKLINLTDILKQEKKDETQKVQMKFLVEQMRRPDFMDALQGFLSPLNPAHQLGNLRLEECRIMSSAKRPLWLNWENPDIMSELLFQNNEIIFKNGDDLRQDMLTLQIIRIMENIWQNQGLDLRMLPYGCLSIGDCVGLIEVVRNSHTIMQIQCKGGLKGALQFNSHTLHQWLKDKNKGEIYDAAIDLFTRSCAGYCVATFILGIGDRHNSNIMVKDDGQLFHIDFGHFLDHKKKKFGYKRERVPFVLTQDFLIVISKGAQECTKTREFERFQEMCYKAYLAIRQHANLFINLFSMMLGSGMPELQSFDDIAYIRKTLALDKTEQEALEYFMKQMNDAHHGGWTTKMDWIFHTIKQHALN
Sequence of PIK3CA/PIK3R1 (P27986 whole entry partner, looked up): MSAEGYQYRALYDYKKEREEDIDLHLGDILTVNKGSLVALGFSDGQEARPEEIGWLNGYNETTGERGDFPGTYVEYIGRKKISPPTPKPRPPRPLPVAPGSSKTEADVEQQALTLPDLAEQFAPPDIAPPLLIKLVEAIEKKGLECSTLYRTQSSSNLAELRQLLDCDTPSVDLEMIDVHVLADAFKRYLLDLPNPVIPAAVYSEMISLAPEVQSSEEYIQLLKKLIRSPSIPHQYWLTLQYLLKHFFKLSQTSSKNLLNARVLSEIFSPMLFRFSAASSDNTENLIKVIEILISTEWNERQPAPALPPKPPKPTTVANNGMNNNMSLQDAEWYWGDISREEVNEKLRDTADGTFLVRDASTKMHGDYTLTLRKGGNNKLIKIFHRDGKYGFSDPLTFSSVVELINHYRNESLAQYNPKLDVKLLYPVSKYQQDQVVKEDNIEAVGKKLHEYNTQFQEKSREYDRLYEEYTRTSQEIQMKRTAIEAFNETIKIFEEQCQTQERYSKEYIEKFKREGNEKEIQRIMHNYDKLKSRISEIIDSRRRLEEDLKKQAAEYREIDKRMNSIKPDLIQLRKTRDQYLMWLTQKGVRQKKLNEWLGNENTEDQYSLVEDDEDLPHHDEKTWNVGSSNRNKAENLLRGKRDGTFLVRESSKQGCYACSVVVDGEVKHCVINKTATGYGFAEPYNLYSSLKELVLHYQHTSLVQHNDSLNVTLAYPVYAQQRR
Sequence of CDK9/CycT1 (P50750 whole entry, looked up): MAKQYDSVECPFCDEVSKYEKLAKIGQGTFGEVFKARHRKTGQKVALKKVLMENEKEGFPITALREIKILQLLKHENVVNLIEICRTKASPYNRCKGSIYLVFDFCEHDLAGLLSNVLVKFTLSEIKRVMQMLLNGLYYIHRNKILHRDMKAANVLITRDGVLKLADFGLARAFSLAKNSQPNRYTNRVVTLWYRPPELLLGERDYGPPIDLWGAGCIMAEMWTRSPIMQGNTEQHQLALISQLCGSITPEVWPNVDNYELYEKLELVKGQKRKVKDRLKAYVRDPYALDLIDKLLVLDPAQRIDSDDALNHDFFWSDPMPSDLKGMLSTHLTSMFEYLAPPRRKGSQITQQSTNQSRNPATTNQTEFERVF
Sequence of CDK9/CycT1 (O60563 whole entry partner, looked up): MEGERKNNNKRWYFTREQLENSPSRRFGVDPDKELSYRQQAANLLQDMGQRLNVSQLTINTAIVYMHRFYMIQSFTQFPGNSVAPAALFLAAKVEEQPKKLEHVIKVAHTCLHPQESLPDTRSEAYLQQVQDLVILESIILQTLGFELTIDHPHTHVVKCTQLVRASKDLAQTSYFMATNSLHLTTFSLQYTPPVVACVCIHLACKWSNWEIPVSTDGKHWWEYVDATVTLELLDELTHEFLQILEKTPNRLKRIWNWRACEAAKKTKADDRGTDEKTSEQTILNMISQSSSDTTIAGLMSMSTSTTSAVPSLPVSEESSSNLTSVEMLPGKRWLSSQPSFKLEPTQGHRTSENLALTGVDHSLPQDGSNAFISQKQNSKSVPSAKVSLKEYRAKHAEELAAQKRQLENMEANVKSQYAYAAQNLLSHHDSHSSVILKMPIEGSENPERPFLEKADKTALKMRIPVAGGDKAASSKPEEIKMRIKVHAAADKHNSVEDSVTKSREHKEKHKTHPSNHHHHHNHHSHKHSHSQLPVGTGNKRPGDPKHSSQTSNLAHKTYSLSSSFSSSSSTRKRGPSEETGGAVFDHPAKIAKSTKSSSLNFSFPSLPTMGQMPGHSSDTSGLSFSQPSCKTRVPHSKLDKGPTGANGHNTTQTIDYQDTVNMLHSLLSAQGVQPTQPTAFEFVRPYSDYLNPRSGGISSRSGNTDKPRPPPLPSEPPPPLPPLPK
Sequence of p70S6Kβ (Q9UBS0 whole entry): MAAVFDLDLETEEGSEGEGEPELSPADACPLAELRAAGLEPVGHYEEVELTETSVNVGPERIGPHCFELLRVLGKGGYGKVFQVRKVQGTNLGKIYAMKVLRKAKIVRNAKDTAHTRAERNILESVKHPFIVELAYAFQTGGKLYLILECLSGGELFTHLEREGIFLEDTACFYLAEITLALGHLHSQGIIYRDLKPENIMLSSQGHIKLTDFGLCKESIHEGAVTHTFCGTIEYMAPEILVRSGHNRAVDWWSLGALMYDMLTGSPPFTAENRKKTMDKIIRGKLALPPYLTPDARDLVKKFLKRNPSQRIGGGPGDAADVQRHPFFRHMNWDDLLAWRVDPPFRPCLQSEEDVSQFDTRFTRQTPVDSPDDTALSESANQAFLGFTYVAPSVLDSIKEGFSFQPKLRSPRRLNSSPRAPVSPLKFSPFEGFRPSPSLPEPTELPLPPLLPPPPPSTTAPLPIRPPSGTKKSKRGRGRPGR
Sequence of PKCθ (Q04759 whole entry): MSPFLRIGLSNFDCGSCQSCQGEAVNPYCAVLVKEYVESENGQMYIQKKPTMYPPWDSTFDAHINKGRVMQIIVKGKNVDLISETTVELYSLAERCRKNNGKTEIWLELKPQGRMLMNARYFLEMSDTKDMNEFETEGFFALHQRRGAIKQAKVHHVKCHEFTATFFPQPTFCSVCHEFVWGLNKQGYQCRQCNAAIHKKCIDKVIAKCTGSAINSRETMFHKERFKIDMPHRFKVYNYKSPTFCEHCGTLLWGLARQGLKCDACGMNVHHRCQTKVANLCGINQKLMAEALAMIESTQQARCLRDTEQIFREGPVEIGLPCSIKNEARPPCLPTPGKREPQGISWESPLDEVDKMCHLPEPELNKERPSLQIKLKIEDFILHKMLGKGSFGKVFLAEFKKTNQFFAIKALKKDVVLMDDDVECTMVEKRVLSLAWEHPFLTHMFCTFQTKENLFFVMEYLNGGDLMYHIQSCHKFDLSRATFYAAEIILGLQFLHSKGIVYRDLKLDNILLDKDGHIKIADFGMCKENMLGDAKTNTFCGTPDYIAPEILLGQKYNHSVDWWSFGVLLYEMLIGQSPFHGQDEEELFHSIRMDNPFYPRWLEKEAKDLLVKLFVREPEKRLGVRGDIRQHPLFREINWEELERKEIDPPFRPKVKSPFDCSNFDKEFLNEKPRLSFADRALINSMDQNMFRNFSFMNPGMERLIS
Sequence of DCAMKL2 (Q8N568 whole entry): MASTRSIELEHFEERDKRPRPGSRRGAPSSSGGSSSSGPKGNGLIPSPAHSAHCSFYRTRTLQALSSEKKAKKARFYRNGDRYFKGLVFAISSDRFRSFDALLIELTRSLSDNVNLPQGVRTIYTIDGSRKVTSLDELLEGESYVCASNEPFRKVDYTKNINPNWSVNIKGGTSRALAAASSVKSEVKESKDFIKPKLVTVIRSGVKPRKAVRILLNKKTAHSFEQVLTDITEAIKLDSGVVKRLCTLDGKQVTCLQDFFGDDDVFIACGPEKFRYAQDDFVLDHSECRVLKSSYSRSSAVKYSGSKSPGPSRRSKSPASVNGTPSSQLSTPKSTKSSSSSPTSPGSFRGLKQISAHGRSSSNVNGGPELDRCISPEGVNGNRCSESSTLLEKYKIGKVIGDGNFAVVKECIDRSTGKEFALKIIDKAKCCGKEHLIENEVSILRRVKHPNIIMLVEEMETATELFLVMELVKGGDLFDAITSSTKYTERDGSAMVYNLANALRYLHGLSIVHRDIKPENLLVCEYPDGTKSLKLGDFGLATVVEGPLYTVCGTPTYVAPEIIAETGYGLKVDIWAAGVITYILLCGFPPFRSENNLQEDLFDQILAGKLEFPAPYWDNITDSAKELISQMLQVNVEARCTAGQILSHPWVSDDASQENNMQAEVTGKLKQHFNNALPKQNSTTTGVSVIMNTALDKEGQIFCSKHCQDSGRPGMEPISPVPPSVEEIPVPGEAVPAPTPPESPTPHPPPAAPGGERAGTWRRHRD

CCC1(c2ccccc2)C2=C(CC(C)(C)CC2=O)Nc2ncsc21 (centres unmarked) [Compound 1, 9-Ethyl-6,6-dimethyl-9-phenyl-5,6,7,9-tetrahydrothiazolo[4,5-b]quinolin-8(4H)-one]
inhibition at 10 µM (EEF2K): 1.6% | inhibition at 10 µM (KIT(V560G)): -5.8% | inhibition at 10 µM (HER2): -1% | IC50 (CDK2/CycA2): 6.91 µM | inhibition at 10 µM (CDK2/CycA2; [1]): 58.8% | IC50 (CDK2/CycE1): 8.52 µM | inhibition at 10 µM (CDK2/CycE1; [1]): 53.4% | IC50 (CDK9/CycT1): 6.48 µM | inhibition at 10 µM (CDK9/CycT1; [1]): 60.5% | IC50 (CDK3/CycE1): 6.22 µM | inhibition at 10 µM (CDK3/CycE1; [1]): 55.5% | IC50 (PIK3CA/PIK3R1): > 10 µM | inhibition at 10 µM (PIK3CA/PIK3R1; [1]): 65.1% | inhibition at 10 µM (TSSK2): 3.1% | inhibition at 10 µM (DYRK1B): -18.1% | inhibition at 10 µM (MST2): 4.2% | inhibition at 10 µM (PLK1): -5.3% | inhibition at 10 µM (SLK): -0.6% | inhibition at 10 µM (CGK2): -1.6% | inhibition at 10 µM (PKCβ1): -7.4% | inhibition at 10 µM (CDC2/CycB1): 22.7% | inhibition at 10 µM (PBK): 0.8% | inhibition at 10 µM (PKCζ): 0.5% | inhibition at 10 µM (CLK1): -7.2% | inhibition at 10 µM (MAP2K4_Cascade): 3.7% | inhibition at 10 µM (FGFR4(V550E)): 4% | inhibition at 10 µM (BRAF(V600E)_Cascade): 6.1% | inhibition at 10 µM (FRK): 8.4% | inhibition at 10 µM (HGK): 0.4% | inhibition at 10 µM (PHKG1): 5.9% | inhibition at 10 µM (DCAMKL2): -7.6% | inhibition at 10 µM (ARG): -0.6% | inhibition at 10 µM (MLK3_Cascade): 7.3% | inhibition at 10 µM (p70S6Kβ): 0.5% | inhibition at 10 µM (CK1γ3): 1.5% | inhibition at 10 µM (PKCθ): -11.2% | inhibition at 10 µM (CaMK2γ): -5.2% | inhibition at 10 µM (JAK2): -0.9% | inhibition at 10 µM (ITK): 0% | inhibition at 10 µM (CaMK2β): 2.8% | inhibition at 10 µM (MLK1_Cascade): 7.5% | inhibition at 10 µM (DAPK1): -8.7% | inhibition at 10 µM (RET(M918T)): 0.6% | inhibition at 10 µM (DYRK1A): -5.8%

Reference: patent US11203601B2, “Tricyclic compounds as glycogen synthase kinase 3 (GSK3) inhibitors and uses thereof” (The Broad Institute, Inc., priority 2017, dated 2021)
